According to paper PMC4747383, “Design of a peptidic inhibitor that targets the dimer interface of a prototypic galectin” (Oncotarget, 2015):
Entries after “also recorded” stand apart in the source; their conditions may differ. No end group written: not given here.

What was measured:
[1] = parameters: method as in PMID 22922050; settings: ref [51]; cited from earlier work
recombinant hGal-1 = assay: Disruption of hGal-1 dimers, native gel electrophoresis/Western blot; type: biochemical, human; settings: recombinant hGal-1, 20 mM potassium phosphate pH 7.1, films overexposed, three independent experiments
Source text: (§1) To measure the ability of the peptides to disrupt the formation of hGal-7 dimers, we used mild denaturing native gel electrophoresis, a commonly used approach to visualize monomer-dimer equilibrium (Fig. 1A and Supplementary Fig. S1). […] This specificity at disrupting hGal-7 dimer formation is provided by distinct three-dimensional arrangements between otherwise very similar galectin homologues. Indeed, while all monomeric galectins reveal identical topologies, dimer formation in hGal-7 proceeds through a “back-to-back” topology of the monomers while other galectins, including hGal-1 and hGal-2, adopt a “side-by-side” structural arrangement (Fig. 1B). This structural organization provides additional means to specifically target and disrupt galectin function.
(§2) Incubation of the recombinant B. hGal-1 and C. hGal-2 with hGal-7(129–135) was performed in the same potassium phosphate buffer. The effect of hGal-7(129–135) on the monomeric and dimeric forms of hGal-7/hGal-1/hGal-2 was assessed by Western blotting in native conditions with respective antibodies. The hGal-1/hGal-2 films were overexposed. PACAP28–38 was the control peptide used in order to ensure the specificity of hGal-7(129–135). […]
(§3) Human Gal-7 cDNA was cloned into pET-22b(+) using NdeI and HindIII restriction enzymes. […] Purified fractions were analyzed by SDS-PAGE. […]

recombinant hGal-2 = assay: Disruption of hGal-2 dimers, native gel electrophoresis/Western blot; type: biochemical, human; settings: recombinant hGal-2, 20 mM potassium phosphate pH 7.1, films overexposed, three independent experiments
Source text: as §1, §2, §3

recombinant hGal-7 = assay: Solid phase fluorescent binding assay on hGal-7; parameters: species or system human; settings: hGal-7 10 μg/ml coated; unlabeled peptide (1 mM) 60 min, then biotin-labeled peptide 120 min, room temperature; Streptavidin R-phycoerythrin fluorescence; three independent experiments
Source text: Results are representative of three independent experiments. Error bars represent standard deviation.

Substance | binding of cell surface phospholipids [1] | disruption of hGal-1 homodimers (recombinant hGal-1) | disruption of hGal-2 homodimers (recombinant hGal-2) | binding to immobilized hGal-7 (recombinant hGal-7)
PACAP(28–38): an inactive fragment of the human Pituitary Adenylate Cyclase-Activating Polypeptide (PACAP) (GKRYKQRVKNK-NH2; ends and bridges not checked; UniProt P18509 159-169, looked up, fragment) | binds cell surface phospholipids | – | – | –
H-LDSVRIP-NH2 [hGal-7(129–135), peptide corresponding to hGal-7 segment between residues 129–135] | – | No such effect was observed | No such effect was observed | direct interaction; also recorded: bind hGal-7 in a concentration-dependent and specific manner
